The values that follow come from patent US20240208992A1, “MACROCYCLES AS CFTR MODULATORS” (Idorsia Pharmaceuticals Ltd, priority 2021, published 2024).

The assay has as its target human F508del-CFTR (Homo sapiens, UniProt P13569, DEL508-508). The assay can be described thus: F508del-CFTR cell surface expression (corrector activity), DiscoveRx ß-galactosidase complementation chemiluminescence assay in recombinant U2OS cell line.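 On all read-outs here: U2OS cells co-expressing ProLink-tagged F508del-CFTR and a membrane-anchored enzyme acceptor, where more surface CFTR restores β-galactosidase activity measured by chemiluminescence.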 Conditions: U2OS cells, 16h compound incubation; for EC50: EC50, F508del-CFTR cell surface expression, geomean of several measurements; for Emax: U2OS, in relation to the Emax of the corrector lumacaftor (=100%), arithmetic mean.

Sequence of human F508del-CFTR (P13569 with tags, fused parts or gaps DEL508-508): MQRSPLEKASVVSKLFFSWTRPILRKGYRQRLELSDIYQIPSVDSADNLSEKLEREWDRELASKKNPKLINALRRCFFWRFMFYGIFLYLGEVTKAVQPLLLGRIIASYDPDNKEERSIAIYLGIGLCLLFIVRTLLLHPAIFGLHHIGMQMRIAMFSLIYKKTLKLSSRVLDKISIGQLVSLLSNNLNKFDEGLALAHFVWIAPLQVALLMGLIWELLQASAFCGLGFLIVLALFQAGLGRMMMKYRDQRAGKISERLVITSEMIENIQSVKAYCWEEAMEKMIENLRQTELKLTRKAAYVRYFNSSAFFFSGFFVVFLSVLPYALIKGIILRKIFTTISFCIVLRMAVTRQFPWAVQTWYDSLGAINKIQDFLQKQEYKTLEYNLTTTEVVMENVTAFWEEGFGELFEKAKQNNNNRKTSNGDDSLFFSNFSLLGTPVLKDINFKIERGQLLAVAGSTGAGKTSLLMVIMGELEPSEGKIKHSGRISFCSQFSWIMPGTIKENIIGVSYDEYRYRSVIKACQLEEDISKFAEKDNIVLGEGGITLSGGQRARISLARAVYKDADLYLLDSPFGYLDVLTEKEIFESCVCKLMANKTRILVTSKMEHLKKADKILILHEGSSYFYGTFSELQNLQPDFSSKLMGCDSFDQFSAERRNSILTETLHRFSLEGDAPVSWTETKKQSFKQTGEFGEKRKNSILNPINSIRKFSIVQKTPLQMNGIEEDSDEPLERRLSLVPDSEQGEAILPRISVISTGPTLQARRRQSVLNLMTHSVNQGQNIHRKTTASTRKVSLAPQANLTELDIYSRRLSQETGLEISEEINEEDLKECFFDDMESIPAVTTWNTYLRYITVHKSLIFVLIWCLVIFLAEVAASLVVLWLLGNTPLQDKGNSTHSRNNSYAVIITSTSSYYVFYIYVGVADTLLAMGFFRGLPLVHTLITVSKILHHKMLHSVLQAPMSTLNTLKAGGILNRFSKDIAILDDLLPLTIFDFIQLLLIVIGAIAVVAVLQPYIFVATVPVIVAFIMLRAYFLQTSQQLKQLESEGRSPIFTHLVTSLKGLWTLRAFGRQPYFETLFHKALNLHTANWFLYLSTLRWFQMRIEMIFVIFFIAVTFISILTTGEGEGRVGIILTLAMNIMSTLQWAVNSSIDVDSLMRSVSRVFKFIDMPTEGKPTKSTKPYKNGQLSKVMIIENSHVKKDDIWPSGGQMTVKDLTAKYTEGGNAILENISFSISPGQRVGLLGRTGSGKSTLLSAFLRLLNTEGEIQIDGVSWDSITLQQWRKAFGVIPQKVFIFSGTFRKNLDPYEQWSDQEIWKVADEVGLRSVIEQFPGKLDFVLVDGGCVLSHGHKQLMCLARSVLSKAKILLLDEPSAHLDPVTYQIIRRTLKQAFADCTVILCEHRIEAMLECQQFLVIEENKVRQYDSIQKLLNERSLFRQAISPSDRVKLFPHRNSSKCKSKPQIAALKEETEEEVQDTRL

Take `Cc1cc2c(c3cccnc13)C(=O)N[C@H](C(=O)NCCc1noc(C3CC3)n1)CC(=O)N(C)[C@@H](CC(C)C)C(=O)N(C)[C@H](Cc1nc(C(F)(F)F)no1)C(=O)N[C@H](Cc1ccccc1)CO2` [Example 935, (3S,7S,10R,13R)-13-benzyl-N-(2-(5-cyclopropyl-1,2,4-oxadiazol-3-yl)ethyl)-7-isobutyl-6,9,17-trimethyl-1,5,8,11-tetraoxo-10-((3-(trifluoromethyl)-1,2,4-oxadiazol-5-yl)methyl)-1,2,3,4,5,6,7,8,9,10,11,12,13,14-tetradecahydro-[1]oxa[4,7,10,14]tetraazacycloheptadecino[16,17-f]quinoline-3-carboxamide]: the EC50 (usually the concentration that produces a half-maximal response) was found to be 0.024 µM and the maximum response (Emax) (as a rule, the size of the effect at its maximum, as opposed to the concentration needed) is 496%.

`Cc1cc2c(c3cccnc13)C(=O)N[C@H](C(=O)NCCc1nc(C3CC3)no1)CC(=O)N(C)[C@@H](CC(C)C)C(=O)N(C)[C@H](Cc1nc(C(F)(F)F)no1)C(=O)N[C@H](Cc1ccccc1)CO2` [Example 936, (3S,7S,10R,13R)-13-benzyl-N-(2-(3-cyclopropyl-1,2,4-oxadiazol-5-yl)ethyl)-7-isobutyl-6,9,17-trimethyl-1,5,8,11-tetraoxo-10-((3-(trifluoromethyl)-1,2,4-oxadiazol-5-yl)methyl)-1,2,3,4,5,6,7,8,9,10,11,12,13,14-tetradecahydro-[1]oxa[4,7,10,14]tetraazacycloheptadecino[16,17-f]quinoline-3-carboxamide]: the EC50 is 0.026 µM and the Emax stood at 469%.

As to `CC(C)C[C@H]1C(=O)N(C)[C@H](Cc2nc(C(F)(F)F)no2)C(=O)N[C@H](Cc2ccccc2)COc2ccc3ncc(F)cc3c2C(=O)N[C@H](C(=O)NCCn2nc3ccccc3n2)CC(=O)N1C` [Example 937, (3S,7S,10R,13R)-N-(2-(2H-benzo[d][1,2,3]triazol-2-yl)ethyl)-13-benzyl-20-fluoro-7-isobutyl-6,9-dimethyl-1,5,8,11-tetraoxo-10-((3-(trifluoromethyl)-1,2,4-oxadiazol-5-yl)methyl)-1,2,3,4,5,6,7,8,9,10,11,12,13,14-tetradecahydro-[1]oxa[4,7,10,14]tetraazacycloheptadecino[16,17-f]quinoline-3-carboxamide], the EC50 amounted to 0.059 µM and the Emax is 460%.

For `COc1noc(CCNC(=O)[C@@H]2CC(=O)N(C)[C@@H](CC(C)C)C(=O)N(C)[C@H](CC(F)(F)F)C(=O)N[C@H](Cc3ccccc3)COc3ccc4cnc(C)cc4c3C(=O)N2)n1` [Example 938, (3S,7S,10R,13R)-13-benzyl-7-isobutyl-N-(2-(3-methoxy-1,2,4-oxadiazol-5-yl)ethyl)-6,9,20-trimethyl-1,5,8,11-tetraoxo-10-(2,2,2-trifluoroethyl)-1,2,3,4,5,6,7,8,9,10,11,12,13,14-tetradecahydro-[1]oxa[4,7,10,14]tetraazacycloheptadecino[16,17-f]isoquinoline-3-carboxamide], the EC50 is 0.245 µM and the Emax worked out at 498%.

Consider `COc1noc(CCNC(=O)[C@@H]2CC(=O)N(C)[C@@H](CC(C)C)C(=O)N(C)[C@@H](CC(F)(F)F)C(=O)N[C@H](Cc3ccccc3)COc3ccc4cnc(C)cc4c3C(=O)N2)n1` [Example 939, (3S,7S,10S,13R)-13-benzyl-7-isobutyl-N-(2-(3-methoxy-1,2,4-oxadiazol-5-yl)ethyl)-6,9,20-trimethyl-1,5,8,11-tetraoxo-10-(2,2,2-trifluoroethyl)-1,2,3,4,5,6,7,8,9,10,11,12,13,14-tetradecahydro-[1]oxa[4,7,10,14]tetraazacycloheptadecino[16,17-f]isoquinoline-3-carboxamide], for which the EC50 turned out to be 0.737 µM and the Emax is 288%.

Regarding `COc1noc(CCNC(=O)[C@@H]2CC(=O)N(C)[C@@H](CC(C)C)C(=O)N(C)[C@@H](CC(F)(F)F)C(=O)N[C@H](Cc3ccccc3)COc3ccc4ncc(F)cc4c3C(=O)N2)n1` [Example 940, (3S,7S,10S,13R)-13-benzyl-20-fluoro-7-isobutyl-N-(2-(3-methoxy-1,2,4-oxadiazol-5-yl)ethyl)-6,9-dimethyl-1,5,8,11-tetraoxo-10-(2,2,2-trifluoroethyl)-1,2,3,4,5,6,7,8,9,10,11,12,13,14-tetradecahydro-[1]oxa[4,7,10,14]tetraazacycloheptadecino[16,17-f]quinoline-3-carboxamide], the concentration for a half-maximal effect (EC50) worked out at 0.673 µM and the maximum response (Emax) amounted to 298%.

`COc1noc(CCNC(=O)[C@@H]2CC(=O)N(C)[C@@H](CC(C)C)C(=O)N(C)[C@H](CC(F)(F)F)C(=O)N[C@H](Cc3ccccc3)COc3ccc4ncc(F)cc4c3C(=O)N2)n1` [Example 941, (3S,7S,10R,13R)-13-benzyl-20-fluoro-7-isobutyl-N-(2-(3-methoxy-1,2,4-oxadiazol-5-yl)ethyl)-6,9-dimethyl-1,5,8,11-tetraoxo-10-(2,2,2-trifluoroethyl)-1,2,3,4,5,6,7,8,9,10,11,12,13,14-tetradecahydro-[1]oxa[4,7,10,14]tetraazacycloheptadecino[16,17-f]quinoline-3-carboxamide]: the EC50 is 0.135 µM and the maximal effect (Emax) came out at 459%.

Consider `COc1noc(CCNC(=O)[C@@H]2CC(=O)N(C)[C@@H](CC(C)C)C(=O)N(C)[C@H](CC(F)(F)F)C(=O)N[C@H](Cc3ccccc3)COc3cc(C)nc(OC)c3C(=O)N2)n1` [Example 942, (3R,6R,9S,13S)-3-benzyl-9-isobutyl-16-methoxy-N-(2-(3-methoxy-1,2,4-oxadiazol-5-yl)ethyl)-7,10,18-trimethyl-5,8,11,15-tetraoxo-6-(2,2,2-trifluoroethyl)-2,3,4,5,6,7,8,9,10,11,12,13,14,15-tetradecahydropyrido[3,4-p][1]oxa[4,7,10,14]tetraazacycloheptadecine-13-carboxamide], for which the half-maximal effective concentration (EC50) was determined as 0.194 µM and the maximal effect (Emax) stood at 460%.

For the molecule `COc1nc(C)cc2c1C(=O)N[C@H](C(=O)NC[C@@H](O)c1nc(C3CC3)no1)CC(=O)N(C)[C@@H](CC(C)C)C(=O)N(C)[C@H](Cc1nc(C(F)(F)F)no1)C(=O)N[C@H](Cc1ccccc1)CO2` [Example 943, (3R,6R,9S,13S)-3-benzyl-N-((R)-2-(3-cyclopropyl-1,2,4-oxadiazol-5-yl)-2-hydroxyethyl)-9-isobutyl-16-methoxy-7,10,18-trimethyl-5,8,11,15-tetraoxo-6-((3-(trifluoromethyl)-1,2,4-oxadiazol-5-yl)methyl)-2,3,4,5,6,7,8,9,10,11,12,13,14,15-tetradecahydropyrido[3,4-p][1]oxa[4,7,10,14]tetraazacycloheptadecine-13-carboxamide], the EC50 was 0.24 µM and the Emax is 471%.

On to `CC(C)C[C@H]1C(=O)N(C)[C@H](Cc2nc(C(F)(F)F)no2)C(=O)N[C@H](Cc2ccccc2)COc2ccc3ncc(F)cc3c2C(=O)N[C@H](C(=O)NCCCOC(F)F)CC(=O)N1C` [Example 944, (3S,7S,10R,13R)-13-benzyl-N-(3-(difluoromethoxy)propyl)-20-fluoro-7-isobutyl-6,9-dimethyl-1,5,8,11-tetraoxo-10-((3-(trifluoromethyl)-1,2,4-oxadiazol-5-yl)methyl)-1,2,3,4,5,6,7,8,9,10,11,12,13,14-tetradecahydro-[1]oxa[4,7,10,14]tetraazacycloheptadecino[16,17-f]quinoline-3-carboxamide], for which the EC50 amounted to 0.077 µM and the maximum response (Emax) is 336%.

Turning to `COc1noc(CCNC(=O)[C@@H]2CC(=O)N(C)[C@@H](CC(C)C)C(=O)N(C)[C@H](Cc3nc(C(F)(F)F)no3)C(=O)N[C@H](Cc3ccccc3)COc3cc(C)nc(OC)c3C(=O)N2)c1F` [Example 945, (3R,6R,9S,13S)-3-benzyl-N-(2-(4-fluoro-3-methoxyisoxazol-5-yl)ethyl)-9-isobutyl-16-methoxy-7,10,18-trimethyl-5,8,11,15-tetraoxo-6-((3-(trifluoromethyl)-1,2,4-oxadiazol-5-yl)methyl)-2,3,4,5,6,7,8,9,10,11,12,13,14,15-tetradecahydropyrido[3,4-p][1]oxa[4,7,10,14]tetraazacycloheptadecine-13-carboxamide], the EC50 was determined as 0.033 µM and the Emax is 502%.

As for `Cc1cc(CCNC(=O)[C@@H]2CC(=O)N(C)[C@@H](CC(C)C)C(=O)N(C)[C@H](CC(F)F)C(=O)N[C@H](Cc3ccccc3)COc3ccc4ncc(F)cc4c3C(=O)N2)on1` [Example 946, (3S,7S,10R,13R)-13-benzyl-10-(2,2-difluoroethyl)-20-fluoro-7-isobutyl-6,9-dimethyl-N-(2-(3-methylisoxazol-5-yl)ethyl)-1,5,8,11-tetraoxo-1,2,3,4,5,6,7,8,9,10,11,12,13,14-tetradecahydro-[1]oxa[4,7,10,14]tetraazacycloheptadecino[16,17-f]quinoline-3-carboxamide], the half-maximal effective concentration (EC50) was 0.447 µM and the Emax was 404%.

Turning to `COc1noc(CCNC(=O)[C@@H]2CC(=O)N(C)[C@@H](CC(C)C)C(=O)N(C)[C@H](CC(F)F)C(=O)N[C@H](Cc3ccccc3)COc3ccc4ncc(F)cc4c3C(=O)N2)n1` [Example 947, (3S,7S,10R,13R)-13-benzyl-10-(2,2-difluoroethyl)-20-fluoro-7-isobutyl-N-(2-(3-methoxy-1,2,4-oxadiazol-5-yl)ethyl)-6,9-dimethyl-1,5,8,11-tetraoxo-1,2,3,4,5,6,7,8,9,10,11,12,13,14-tetradecahydro-[1]oxa[4,7,10,14]tetraazacycloheptadecino[16,17-f]quinoline-3-carboxamide], the concentration for a half-maximal effect (EC50) was found to be 0.281 µM and the maximal effect (Emax) worked out at 458%.

Regarding `COc1cc(CCNC(=O)[C@@H]2CC(=O)N(C)[C@@H](CC(C)C)C(=O)N(C)[C@H](Cc3nc(C(F)(F)F)no3)C(=O)N[C@H](Cc3ccccc3)COc3ccnc(OC)c3C(=O)N2)on1` [Example 948, (3R,6R,9S,13S)-3-benzyl-9-isobutyl-16-methoxy-N-(2-(3-methoxyisoxazol-5-yl)ethyl)-7,10-dimethyl-5,8,11,15-tetraoxo-6-((3-(trifluoromethyl)-1,2,4-oxadiazol-5-yl)methyl)-2,3,4,5,6,7,8,9,10,11,12,13,14,15-tetradecahydropyrido[3,4-p][1]oxa[4,7,10,14]tetraazacycloheptadecine-13-carboxamide], the half-maximal effective concentration (EC50) stood at 0.061 µM and the maximal effect (Emax) was determined as 501%.
